In the NIST ThermoML archive (doi:10.1007/s10765-010-0719-7):

Columns and labels:
[1] = refractive index (Na D-line) (dimensionless); conditions: 303.15 K; 101.33 kPa; Liquid; Standard Abbe refractometry
[2] = 101 kPa, Liquid; for mass density: Pycnometric method
[3] = refractive index (Na D-line) (dimensionless); xn = mol fraction of the nth substance listed; conditions: 303.15 K, 101 kPa, Liquid, Standard Abbe refractometry
[4] = xn = mol fraction of the nth substance listed; conditions: 101 kPa, Liquid; for mass density: Pycnometric method

CCCCOCCO [2-butoxyethan-1-ol]
Conditions | refractive index
[1] | 1.415

[2]
Conditions | mass density [kg/m3] | speed of sound [m/s] | viscosity [mPa·s]
303.15 K | 892 | 1288.4 | 2.486
313.15 K | 884.2 | – | 1.979
323.15 K | 877.5 | – | 1.653

CCCCOCCO [2-butoxyethan-1-ol] + CC(C)CCO
[3]
Conditions | refractive index
x2 = 0 | 1.415
x2 = 0.1297 | 1.4138
x2 = 0.251 | 1.4127
x2 = 0.3649 | 1.4115
x2 = 0.472 | 1.4104
x2 = 0.5728 | 1.4093
x2 = 0.6679 | 1.408
x2 = 0.7578 | 1.4069
x2 = 0.8428 | 1.4058
x2 = 0.9235 | 1.4047

[4]
Conditions | mass density, 303.15 K [kg/m3] | mass density, 313.15 K [kg/m3] | mass density, 323.15 K [kg/m3] | speed of sound, 303.15 K [m/s] | viscosity, 303.15 K [mPa·s] | viscosity, 313.15 K [mPa·s] | viscosity, 323.15 K [mPa·s]
x2 = 0 | 892 | 884.2 | 877.5 | 1288.4 | 2.486 | 1.979 | 1.653
x2 = 0.1297 | 882.2 | 874.5 | 867.7 | 1279.8 | 2.483 | 1.969 | 1.623
x2 = 0.251 | 872.5 | 865.4 | 858.2 | 1270.3 | 2.496 | 1.967 | 1.629
x2 = 0.3649 | 863.1 | 856.1 | 848.8 | 1261.8 | 2.514 | 1.987 | 1.636
x2 = 0.472 | 853.9 | 847.2 | 839.8 | 1251.8 | 2.557 | 1.997 | 1.65
x2 = 0.5728 | 845 | 837.9 | 831 | 1242.3 | 2.594 | 2.028 | 1.673
x2 = 0.6679 | 838.6 | 829.5 | 822.3 | 1233.5 | 2.653 | 2.067 | 1.702
x2 = 0.7578 | 827.7 | 821 | 813.9 | 1224.2 | 2.748 | 2.121 | 1.737
x2 = 0.8428 | 819.3 | 812.5 | 805.7 | 1215.3 | 2.877 | 2.2 | 1.798
x2 = 0.9235 | 811.1 | 804.6 | 797.6 | 1206.4 | 3.058 | 2.303 | 1.851

CCOCCO [2-ethoxyethan-1-ol]
Conditions | refractive index
[1] | 1.4065

[2]
Conditions | mass density [kg/m3] | speed of sound [m/s] | viscosity [mPa·s]
303.15 K | 919.5 | 1301.5 | 1.623
313.15 K | 912 | – | 1.355
323.15 K | 903.8 | – | 1.143

CCOCCO [2-ethoxyethan-1-ol] + CC(C)CCO
[3]
Conditions | refractive index
x2 = 0 | 1.4065
x2 = 0.102 | 1.4062
x2 = 0.2036 | 1.4059
x2 = 0.3047 | 1.4055
x2 = 0.4053 | 1.4052
x2 = 0.5055 | 1.4049
x2 = 0.6053 | 1.4046
x2 = 0.7046 | 1.4043
x2 = 0.8035 | 1.404
x2 = 0.902 | 1.4037

[4]
Conditions | mass density, 303.15 K [kg/m3] | mass density, 313.15 K [kg/m3] | mass density, 323.15 K [kg/m3] | speed of sound, 303.15 K [m/s] | viscosity, 303.15 K [mPa·s] | viscosity, 313.15 K [mPa·s] | viscosity, 323.15 K [mPa·s]
x2 = 0 | 919.5 | 912 | 903.8 | 1301.5 | 1.623 | 1.355 | 1.143
x2 = 0.102 | 906.1 | 898.6 | 890.5 | 1292.4 | 1.688 | 1.385 | 1.169
x2 = 0.2036 | 892.9 | 885.6 | 877.7 | 1282.4 | 1.761 | 1.424 | 1.196
x2 = 0.3047 | 880.1 | 872.9 | 865.1 | 1272.7 | 1.812 | 1.469 | 1.222
x2 = 0.4053 | 867.7 | 860.5 | 853 | 1262.9 | 1.892 | 1.53 | 1.263
x2 = 0.5055 | 855.8 | 848.7 | 841.3 | 1251.2 | 1.994 | 1.604 | 1.31
x2 = 0.6053 | 844.3 | 837.3 | 830 | 1240.6 | 2.124 | 1.68 | 1.377
x2 = 0.7046 | 833.3 | 826.4 | 819.2 | 1229.3 | 2.301 | 1.812 | 1.46
x2 = 0.8035 | 822.8 | 815.9 | 808.8 | 1219.2 | 2.496 | 1.945 | 1.566
x2 = 0.902 | 812.6 | 805.8 | 799 | 1208.7 | 2.807 | 2.143 | 1.728
